Measured values from PMC8661032, “Broad-Spectrum Antibacterial Peptide Kills Extracellular and Intracellular Bacteria Without Affecting Epithelialization” (Frontiers in Microbiology, 2021).
≈ marks a conversion by molar mass, not a printed value. Residues, ends and D or L forms follow the SMILES beside them.

Assays:
E. coli [1] = assay: microbe, parasite or virus in culture; details: for MIC: Escherichia coli
Description: (§1) Briefly, bacterial colonies from blood agar plates were suspended and grown in Cation-Adjusted Mueller-Hinton Broth (CAMHB, […] Ca^2+, […] Mg^2+). The bacterial suspension was adjusted to 0.5 McFarland standard (∼1 × 10^8 colony-forming units (CFU)/ml) and serial diluted 1:200 in CAMHB (∼5 × 10^5 CFU/mL). […] The suspension was plated out on blood agar plates to confirm the CFU/ml. Both the microtiter plates and the blood agar plates were incubated at 37°C for 24 h.

HEK293 cells = test system: HEK293 cells
Description: HEK293 cells (6,000 cells/well) were seeded in 96-well microtiter plates. After 4 h, APIM-peptides (12–48 μg/ml) were added, and the cells were incubated without change of media for up to 4 days. Viability was measured using the 3-(4,5-dimethylthiazol-2-yl)-2,5-diphenyltetrazolium bromide (MTT) assay as described ([Gilljam et al., 2009]).
(1 picture or pasted object on this page, not shown here)

[2] = test system: S. epidermidis MRSE (SO-SEP9-1); details: SO-SEP9-1, 24 h
Description: as §1

E. coli [3] = assay: Rifampicin (RifR) mutagenesis assay after UV-C; format: cell-based, Escherichia coli
Description: The rifampicin (Rif^R) mutagenesis assay was performed as described ([Nedal et al., 2020]). Briefly, an overnight culture of E. coli was diluted 1:1,000 and grown until an OD600 of 0.01. APIM-peptides (20 μg/ml) were added to LB media with glass beads (for uniform distribution of APIM-peptides) and incubated for 30 min at 37°C. The pellets were next collected, resuspended in 500 μl PBS, and exposed to UV-C (20 mJ/cm^2) in a six-well plate at 4°C. The unexposed bacteria (-UV) were otherwise handled exactly like the UV-exposed bacteria. Next, the cells were resuspended in LB media and incubated in a rotary shaker at 37°C at 250 rpm for 2 h before being harvested, diluted, and plated on LB with soft agar with and without rifampicin (100 μg/ml). Mutation frequency, Rif^R/10^8, is obtained as follows: (number of colonies on the rifampicin plate (Rif^R)/(number of colonies on LB plates without antibiotics), per milliliter of bacterial suspension. […]
mutagenesis in E. coli more efficiently than the other peptide variants.
Increase in mutation frequencies after treatment with UV-C (20 mJ/cm2) relative to spontaneous mutations frequencies using the RifR assay were determined. This increase is set to 100% for untreated control, and % reduction after addition of peptides 1-5 (20 μg/mL) are shown. Mean ± SD from three independent experiments. * p<0.05, ** p<0.005

K. pneumoniae = assay: microbe, parasite or virus in culture; details: for MIC: Klebsiella pneumoniae
Description: as §1

S. aureus = assay: microbe, parasite or virus in culture; details: for MIC: CAMHB, 24 h, three independent experiments
Description: as §1

[4] = SO-ECO19-1 (ESBL-CARB-A(CTX-M-24)/D(OXA-48))
[5] = Staphylococcus aureus, ATCC29213, 24 h, Reference strain ATCC 29213
[6] = Staphylococcus aureus, MRSA, Clinical isolate SO-SAU19-1 (MRSA)

Structure (SMILES) | MIC (E. coli [1]; 24 h) [µg/mL] | MIC (E. coli [1]; MG1655, 24 h) [µg/mL] | Combination effect with 0.5× MIC betatide (E. coli [1]; MG1655) | Combination effect with 0.5× MIC betatide (E. coli [1]; [4]) | Combination effect with 0.5× MIC betatide (S. aureus; ATCC 29213) | Combination effect with 0.5× MIC betatide (S. aureus; SO-SAU19-1 (MRSA)) | MIC (S. aureus; [5]) [µg/mL] | MIC (S. aureus; [6]) [µg/mL] | also measured
CC[C@H](C)[C@H](NC(=O)CNC(=O)[C@H](CCCCN)NC(=O)[C@@H](NC(=O)[C@H](CC(C)C)NC(=O)[C@H](Cc1c[nH]c2ccccc12)NC(=O)[C@H](CCCNC(=N)N)NC(=O)[C@H](CC(=O)O)NC(=O)[C@H](CCSC)NC(C)=O)C(C)C)C(=O)N[C@@H](CC(C)C)C(=O)N[C@@H](CCC(N)=O)C(=O)N[C@@H](Cc1c[nH]c2ccccc12)C(=O)N[C@@H](CCCNC(=N)N)C(=O)N[C@@H](CCCCN)C(=O)N[C@H](C(=O)N[C@@H](CCCNC(=N)N)C(=O)N[C@@H](CCCNC(=N)N)C(=O)N[C@@H](CCCNC(=N)N)C(=O)N[C@@H](CCCNC(=N)N)C(=O)N[C@@H](CCCNC(=N)N)C(=O)N[C@@H](CCCNC(=N)N)C(=O)N[C@@H](CCCNC(=N)N)C(=O)N[C@@H](CCCNC(=N)N)C(=O)N[C@@H](CCCNC(=N)N)C(=O)N[C@@H](CCCNC(=N)N)C(N)=O)[C@@H](C)CC [Peptide 3] (Ac-MDRWLVKGILQWRKIRRRRRRRRRR-NH2) | – | – | – | – | – | – | – | – | MIC E. coli (E. coli [1]; K-12 MG1655, CLSI broth microdilution, CAMHB, 37°C, 24 h, visible growth, net peptide concentration): 32 µg/mL (≈ 9.03 µM); Reduction of viability HEK293 (24 μg/ml) (HEK293 cells): +; MIC S. epidermidis MRSE [2]: 16 µg/mL (≈ 4.51 µM); UV-induced mutation frequencies relative to control (E. coli [3]; 20 μg/mL, UV-C 20 mJ/cm2, RifR assay, three independent experiments): significantly reduced; Reduction of mutation frequency E. coli (20 μg/ml) (E. coli [3]; 20 μg/ml peptide, UV-C 20 mJ/cm^2, RifR assay, relative to untreated control): ++
CO/N=C(\C(=O)N[C@@H]1C(=O)N2C(C(=O)O)=C(CSc3nc(=O)c(=O)[nH]n3C)CS[C@H]12)c1csc(N)n1 [Ceftriaxone, ceftriaxone] | 1020 (≈ 1850 µM) | 0.06 (≈ 0.108 µM) | None | Additive 4× | – | – | – | – | –
C[C@@H](O)[C@H]1C(=O)N2C(C(=O)O)=C(S[C@@H]3CN[C@H](C(=O)Nc4cccc(C(=O)O)c4)C3)[C@H](C)[C@H]12 [Ertapenem, ertapenem] | 64 (≈ 135 µM) | 0.06 (≈ 0.126 µM) | None | Additive 2× | – | – | – | – | Combination effect with 0.5× MIC betatide (K. pneumoniae; ATCC 13883): Additive 4×; MIC (K. pneumoniae; 24 h): 32 µg/mL (≈ 67.3 µM); MIC (K. pneumoniae; ATCC13883, 24 h): 0.03 µg/mL (≈ 0.0631 µM); Combination effect with 0.5× MIC betatide (K. pneumoniae; SO-KPN19-1 (ESBL-CARBA-D)): Additive 2×
CCC[C@@H]1C[C@@H](C(=O)N[C@@H]([C@H]2O[C@H](SC)[C@H](O)[C@@H](O)[C@H]2O)[C@H](C)Cl)N(C)C1 [Clindamycin, clindamycin] | – | – | – | – | Additive 2× | Additive 2× | 0.25 (≈ 0.588 µM) | 2050 (≈ 4820 µM) | –
CC(=O)O[C@H]1C[C@@]2(C)[C@@H](C[C@@H](O)[C@H]3[C@@]4(C)CC[C@@H](O)[C@@H](C)[C@@H]4CC[C@@]32C)/C1=C(\CCC=C(C)C)C(=O)O [Fusidic acid, fusidic acid] | – | – | – | – | Additive, 2× | Additive 8× | 0.25 (≈ 0.484 µM) | 0.25 (≈ 0.484 µM) | Combination effect with 0.5× MIC betatide (S. aureus; SO-SAU 19-2 (FR-MRSA)): Additive 2×; Combination effect with 0.5× MIC betatide (S. aureus; SO-SAU 19-3 (FR-MRSA)): Additive 4×; Combination effect with 0.5× MIC betatide (S. aureus; SO-SAU 19-4 (FR-MRSA)): Additive 2×; MIC (S. aureus; SO-SAU 19-4 (FR-MRSA)): 8 µg/mL (≈ 15.5 µM); MIC (S. aureus; Staphylococcus aureus, MRSA, SO-SAU 19-2 (FR-MRSA)): 8 µg/mL (≈ 15.5 µM); reduction in MIC of fusidic acid when combined with 0.5× MIC betatide (S. aureus; fusidic acid-sensitive MRSA strain): 8 ×
